How the values were obtained:
HeLa = assay: In vitro functional antagonism between flavonoid (quercetin) and compound; microscopic observation of cell morphologies; assay type: cell-based
Protocol: Three types of cells were employed (HeLa, ECV304, and HBL-100, purchased from ATCC), and for each type, 1×10^5 cells were seeded in a 10 cm dish and cultured in D-MEM/F-12 medium (Gibco BRL) for 18–20 hours. On the next day, the medium was changed to the same medium containing 1.0 μM quercetin (Sigma; hereinafter abbreviated to QCT), followed by culturing for an additional 2 days. The compound A was then added at a concentration of 600 nM, and 72 hours later observations under a microscope were made of cell morphologies.

FLAG-fused Vpr = molecular target: T1, FLAG-fused Vpr (Human immunodeficiency virus type 1 group M subtype B, UniProt P12520); assay: In vitro direct binding of Vpr and compound; affinity precipitation with compound-immobilized Sepharose beads; parameters: species or system HIV
T1 construct: made in house; host or cells: TNT-coupled wheat germ extract in vitro transcription/translation (Promega), with 35S-methionine
T1 sequence (P12520 whole entry, the tested form may be a part): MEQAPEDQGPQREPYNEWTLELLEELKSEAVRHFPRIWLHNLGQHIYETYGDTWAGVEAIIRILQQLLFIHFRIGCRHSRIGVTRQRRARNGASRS
Source text: A Vpr gene fused to N-terminal FLAG (SEQ ID NO:1) was obtained by PCR (polymerase chain reaction) using as a template pBT-1 (purchased from ATCC) into which the HIV genome without env had been incorporated. Primers utilized were synthetic DNAs having the following sequences (SEQ ID NOs:1 and 2). N-terminal FLAG: Asp Tyr Lys Asp Asp Asp Asp Lys (SEQ ID NO:1);
The DNA fragment of interest (300 bp) was recovered from PCR reaction products by agarose gel electrophoresis, and then cloned into the pGEM-T vector (Promega). This fragment was base analyzed on both plus and minus strands and was verified to correspond to the intended fused Vpr. The vector into which the Vpr gene fused to FLAG has been incorporated is hereinafter referred to as pGEM-T/Vpr-wt. […]
(§1) Preparation of FLAG-fused Vpr was performed by transcription and translation from the T7 promoter employing the TNT-coupled wheat germ extract in vitro transcription/translation system (wheat germ extract transcription/translation system) (Promega). […] Whether these products were Vpr was analyzed by carrying out western blotting according to typical procedures employing an anti-FLAG antibody after samples resulting from transcription and translation in the absence of the radiolabel were denatured with SDS (sodium dodecylsulfate). […]

FLAG-fused VprΔC = molecular target: T2, FLAG-fused VprΔC (Human immunodeficiency virus type 1 group M subtype B, UniProt P12520); assay: as above; parameters: species or system HIV; conditions: FIG. 2 (2) lane 5
T2 construct: made in house; host or cells: TNT-coupled wheat germ extract in vitro transcription/translation (Promega), with 35S-methionine
T2 sequence (P12520 1-72, stated change not applied): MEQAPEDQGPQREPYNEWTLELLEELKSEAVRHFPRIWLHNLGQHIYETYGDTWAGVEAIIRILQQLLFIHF
Source text: The DNA fragment of interest (300 bp) was recovered from PCR reaction products by agarose gel electrophoresis, and then cloned into the pGEM-T vector (Promega). This fragment was base analyzed on both plus and minus strands and was verified to correspond to the intended fused Vpr. The vector into which the Vpr gene fused to FLAG has been incorporated is hereinafter referred to as pGEM-T/Vpr-wt. Furthermore, using this pGEM-T/Vpr-wt as a template, a second Vpr gene fused to FLAG in which a C-terminal region of Vpr (a.a. 73–96) was deleted was obtained by PCR utilizing primers shown below (SEQ ID Nos:4 and 5).
This fused gene was cloned into the pGEM-T vector as described above, and the resulting vector is hereinafter referred to as pGEM-T/VprΔC. […]
as §1

Vpr = Vpr (Human immunodeficiency virus type 1 group M subtype B, UniProt P12520); conditions: literature, Shimura M. et al. 1999; cited from earlier work
Vpr, sequence (P12520 whole entry): as the sequence (P12520 whole entry, the tested form may be a part) above

Row | SMILES | effects of the compound after pre-treatment with quercetin (HeLa; HeLa cells, 1.0 μM quercetin for 48 hours, then compound 600 nM for 72 hours) | cell cycle state, cell morphology under a microscope (HeLa; HeLa cells, compound 600 nM alone, 72 hours, compared with the control group) | number of multinucleate cells having plural nuclei within single cells (HeLa; compound 600 nM alone, 72 hours, compared with the control group) | binding of radiolabeled FLAG-fused Vpr to compound-immobilized beads (FLAG-fused Vpr; affinity precipitation, FIG. 2 (2) lane 3) | region of Vpr to which the compound binds (FLAG-fused Vpr; concluded from binding to Vpr and no binding to VprΔC) | binding of radiolabeled FLAG-fused VprΔC (C-terminal a.a. 73–96 deleted) to compound-immobilized beads (FLAG-fused VprΔC) | effect on Vpr functions (Vpr)
1 | COc1ccc(S(=O)(=O)Nc2c(/C=C/c3ccncc3)cccc2OCCN)cc1 [compound B, (E)-4-[2-{3-(2-aminoethyloxy)-2-[N-(4-methoxybenzenesulfonyl)amino]phenyl}ethenyl]pyridine] | disappear almost completely | the cell cycle is arrested at the G2/M period | apparently increased | observed to bind | binds directly to the C-terminal region | not observed to bind | –
2 | O=c1c(O)c(-c2ccc(O)c(O)c2)oc2cc(O)cc(O)c12 [quercetin] | – | – | – | – | – | – | inhibits Vpr functions

Reference: US7148244B2, “Medicines in controlling Vpr function” (Nippon Shinyaku Co. Ltd., priority 2001, dated 2006)
